# In ChEMBL document CHEMBL1201862, “PubChem BioAssay data set” (2004):
#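 48-hour exposure; five concentrations; linearly interpolated endpoints. At the GI50, growth is halved.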 The source made the active and inactive calls. No stated cut-off is given here; in the data, active = GI50 up to about 1.1 µM and inactive = higher.
# Assays:
# Assay in all cases: NCI-60 cell line screen, 48 h
# 786-0 = system: 786-0
# A498 = system: A498
# A549 = system: A549
# ACHN = system: ACHN
# CCRF-CEM = system: CCRF-CEM
# COLO 205 = system: COLO 205
# DLD-1 = system: DLD-1
# DMS-114 = system: DMS-114
# DMS-273 = system: DMS-273
# EKVX = system: EKVX
# HCC 2998 = system: HCC 2998
# HCT-116 = system: HCT-116
# HCT-15 = system: HCT-15
# HL-60 = system: HL-60
# HOP-62 = system: HOP-62
# HT-29 = system: HT-29
# IGROV-1 = system: IGROV-1
# K562 = system: K562
# KM-20L2 = system: KM-20L2
# LOX IMVI = system: LOX IMVI
# LXFL 529 = system: LXFL 529
# M14 = system: M14
# M19-MEL = system: M19-MEL
# MOLT-4 = system: MOLT-4
# Malme-3M = system: Malme-3M
# NCI-H226 = system: NCI-H226
# NCI-H23 = system: NCI-H23
# NCI-H460 = system: NCI-H460
# OVCAR-3 = system: OVCAR-3
# OVCAR-4 = system: OVCAR-4
# OVCAR-8 = system: OVCAR-8
# RPMI-8226 = system: RPMI-8226
# RXF 393 = system: RXF 393
# SF-268 = system: SF-268
# SF-295 = system: SF-295
# SF-539 = system: SF-539
# SK-MEL-28 = system: SK-MEL-28
# SK-MEL-2 = system: SK-MEL-2
# SK-MEL-5 = system: SK-MEL-5
# SN12C = system: SN12C
# SNB-19 = system: SNB-19
# SNB-75 = system: SNB-75
# SR = system: SR
# SW-620 = system: SW-620
# TK-10 = system: TK-10
# U-251 = system: U-251
# UACC-257 = system: UACC-257
# UACC-62 = system: UACC-62
# UO-31 = system: UO-31
# XF498 = system: XF498
# CAKI-1 = system: CAKI-1
# HOP-18 = system: HOP-18
# HOP-92 = system: HOP-92
# KM12 = system: KM12
# NCI-H522 = system: NCI-H522
# OVCAR-5 = system: OVCAR-5
# SK-OV-3 = system: SK-OV-3
# SNB-78 = system: SNB-78
compound,measurement,setting,value
Oc1cc(-c2ccc(Oc3ccccc3)cc2)nc2cc3c(cc12)OCO3,GI50,786-0,> 100 µM (inactive)
same,GI50,A498,> 100 µM (inactive)
same,GI50,A549,> 100 µM (inactive)
same,GI50,ACHN,> 100 µM (inactive)
same,GI50,CCRF-CEM,> 100 µM (inactive)
same,GI50,COLO 205,> 100 µM (inactive)
same,GI50,DLD-1,> 100 µM (inactive)
same,GI50,DMS-114,> 100 µM (inactive)
same,GI50,DMS-273,> 100 µM (inactive)
same,GI50,EKVX,> 100 µM (inactive)
same,GI50,HCC 2998,> 100 µM (inactive)
same,GI50,HCT-116,> 100 µM (inactive)
same,GI50,HCT-15,> 100 µM
same,GI50,HL-60,> 100 µM (inactive)
same,GI50,HOP-62,> 100 µM (inactive)
same,GI50,HT-29,> 100 µM (inactive)
same,GI50,IGROV-1,> 100 µM (inactive)
same,GI50,K562,> 100 µM (inactive)
same,GI50,KM-20L2,> 100 µM (inactive)
same,GI50,LOX IMVI,> 100 µM (inactive)
same,GI50,LXFL 529,> 100 µM (inactive)
same,GI50,M14,> 100 µM (inactive)
same,GI50,M19-MEL,> 100 µM (inactive)
same,GI50,MOLT-4,> 100 µM (inactive)
same,GI50,Malme-3M,> 100 µM (inactive)
same,GI50,NCI-H226,27.5 µM (inactive)
same,GI50,NCI-H23,> 100 µM (inactive)
same,GI50,NCI-H460,> 100 µM (inactive)
same,GI50,OVCAR-3,> 100 µM (inactive)
same,GI50,OVCAR-4,> 100 µM (inactive)
same,GI50,OVCAR-8,> 100 µM (inactive)
same,GI50,RPMI-8226,> 100 µM (inactive)
same,GI50,RXF 393,57.5 µM (inactive)
same,GI50,SF-268,> 100 µM (inactive)
same,GI50,SF-295,> 100 µM (inactive)
same,GI50,SF-539,> 100 µM (inactive)
same,GI50,SK-MEL-28,> 100 µM (inactive)
same,GI50,SK-MEL-2,> 100 µM (inactive)
same,GI50,SK-MEL-5,> 100 µM (inactive)
same,GI50,SN12C,> 100 µM (inactive)
same,GI50,SNB-19,> 100 µM (inactive)
same,GI50,SNB-75,27.2 µM (inactive)
same,GI50,SR,> 100 µM (inactive)
same,GI50,SW-620,> 100 µM (inactive)
same,GI50,TK-10,> 100 µM (inactive)
same,GI50,U-251,> 100 µM (inactive)
same,GI50,UACC-257,> 100 µM (inactive)
same,GI50,UACC-62,> 100 µM (inactive)
same,GI50,UO-31,> 100 µM (inactive)
same,GI50,XF498,> 100 µM (inactive)
CC(=O)OCC1OC(N2C(=O)C(=O)c3cc(C)ccc32)C(OC(C)=O)C(OC(C)=O)C1OC(C)=O (stereo unspecified),GI50,786-0,38.9 µM (inactive)
same,GI50,A498,> 100 µM (inactive)
same,GI50,A549,> 100 µM (inactive)
same,GI50,ACHN,50.9 µM (inactive)
same,GI50,CAKI-1,> 100 µM (inactive)
same,GI50,CCRF-CEM,49.5 µM (inactive)
same,GI50,COLO 205,94.6 µM (inactive)
same,GI50,DLD-1,56 µM (inactive)
same,GI50,DMS-114,> 100 µM (inactive)
same,GI50,DMS-273,> 100 µM (inactive)
same,GI50,EKVX,> 100 µM (inactive)
same,GI50,HCT-116,59.7 µM (inactive)
same,GI50,HCT-15,52.8 µM
same,GI50,HL-60,22.4 µM (inactive)
same,GI50,HOP-18,> 100 µM (inactive)
same,GI50,HOP-62,> 100 µM (inactive)
same,GI50,HOP-92,51.5 µM (inactive)
same,GI50,HT-29,37.2 µM (inactive)
same,GI50,IGROV-1,46 µM (inactive)
same,GI50,K562,> 100 µM (inactive)
same,GI50,KM-20L2,60.5 µM (inactive)
same,GI50,KM12,> 100 µM (inactive)
same,GI50,LOX IMVI,17.1 µM (inactive)
same,GI50,LXFL 529,> 100 µM (inactive)
same,GI50,M14,66.5 µM (inactive)
same,GI50,M19-MEL,50.7 µM (inactive)
same,GI50,MOLT-4,29 µM (inactive)
same,GI50,Malme-3M,> 100 µM (inactive)
same,GI50,NCI-H226,> 100 µM (inactive)
same,GI50,NCI-H23,52.1 µM (inactive)
same,GI50,NCI-H460,> 100 µM (inactive)
same,GI50,NCI-H522,36.3 µM (inactive)
same,GI50,OVCAR-3,99.3 µM (inactive)
same,GI50,OVCAR-4,> 100 µM (inactive)
same,GI50,OVCAR-5,> 100 µM (inactive)
same,GI50,OVCAR-8,63.4 µM (inactive)
same,GI50,RPMI-8226,29.4 µM (inactive)
same,GI50,RXF 393,39.8 µM (inactive)
same,GI50,SF-268,49.5 µM (inactive)
same,GI50,SF-295,> 100 µM (inactive)
same,GI50,SF-539,> 100 µM (inactive)
same,GI50,SK-MEL-28,32.5 µM (inactive)
same,GI50,SK-MEL-2,> 100 µM (inactive)
same,GI50,SK-MEL-5,58.7 µM (inactive)
same,GI50,SK-OV-3,> 100 µM (inactive)
same,GI50,SN12C,65.6 µM (inactive)
same,GI50,SNB-19,> 100 µM (inactive)
same,GI50,SNB-75,> 100 µM (inactive)
same,GI50,SNB-78,> 100 µM (inactive)
same,GI50,SR,15.5 µM (inactive)
same,GI50,SW-620,> 100 µM (inactive)
same,GI50,TK-10,> 100 µM (inactive)
same,GI50,U-251,> 100 µM (inactive)
same,GI50,UACC-257,> 100 µM (inactive)
same,GI50,UACC-62,37.4 µM (inactive)
same,GI50,UO-31,> 100 µM (inactive)
